Among the data in the OligoGym collection are calcium oscillation score values, retold here.

Bases are written 5' to 3'; sugars and linkages follow in the same order, as letters with counts (s phosphorothioate, o phosphodiester; PS: all linkages phosphorothioate). The collection does not say whether C is 5-methylated. l = locked nucleic acid (LNA); d = 2'-deoxy (DNA)

The data set concerns the target Tau. Description: rat primary cortical neurons, FLIPR, 25 uM ASO.
As for “TCAAAATCCTTAATTTAACC (sugars l4 d12 l4, PS)”, the calcium oscillation score was 70.7 % of control. Turning to “TCAAACACACCTTCATTTAC (sugars l2 d14 l4, PS)”, the calcium oscillation score was 82.2 % of control. For the sequence “TCAAACTAATATTAACACT (sugars l4 d11 l4, PS)”, the calcium oscillation score is 80.8 % of control. Take “TCAAATCAATTCTCATTTCA (sugars l3 d13 l4, PS)”: the calcium oscillation score was 62 % of control.

Regarding “TCAACATTACCCTTAAATAT (sugars l4 d13 l3, PS)”, the calcium oscillation score is 82.4 % of control.

Consider “TCAACTCTTAGCATCCA (sugars l4 d11 l2, PS)”, for which the calcium oscillation score was 37.5 % of control. In the case of “TCAACTCTTAGCATCCAC (sugars l2 d13 l3, PS)” it was 50 % of control; in that of TCAACTGGTTTGTAGA (sugars l3 d10 l3, PS), 110 % of control; in that of “TCAACTGGTTTGTAGACTAT (sugars l3 d14 l3, PS)”, 29.9 % of control. In the case of “TCAATTCTCATTTCAACCTT (sugars l2 d15 l3, PS)” it was 70.7 % of control. In the case of “TCAATTTCCCTGTTAAT (sugars l4 d11 l2, PS)” it was 53.4 % of control; in that of “TCAATTTGGAAAGATGAAAT (sugars l3 d14 l3, PS)”, 0 % of control; in that of “TCACAAACCCTGCTTGGCCA (sugars l3 d14 l3, PS)”, 27.6 % of control.

In the case of “TCACAACCCAAGATTCCC (sugars l2 d14 l2, PS)”, the calcium oscillation score is 69.5 % of control. In the case of TCACACACATGATTATC (sugars l4 d9 l4, PS) it was 78.5 % of control; in that of “TCACCACTTTAATCTGC (sugars l2 d12 l3, PS)”, 45.7 % of control; in that of “TCACCACTTTAATCTGCC (sugars l2 d14 l2, PS)”, 69 % of control. As to “TCACTCATGCCTTAATC (sugars l4 d11 l2, PS)”, the calcium oscillation score is 62 % of control. The value for “TCACTTTACACATTAAATTT (sugars l4 d12 l4, PS)” was 62.5 % of control; that for TCAGATTTAATTCTCAC (sugars l4 d9 l4, PS) was 50.7 % of control.

Regarding “TCAGATTTTACTTCCACC (sugars l2 d13 l3, PS)”, the calcium oscillation score was 57.5 % of control.

With “TCAGCTAAGACCCTCAGGTT (sugars l3 d14 l3, PS)”, the calcium oscillation score is 33 % of control. The value for TCAGCTAGCGTGGCGA (sugars l3 d10 l3, PS) was 75.9 % of control.

Take “TCAGCTCTTCCATAAGCAGG (sugars l3 d14 l3, PS)”: the calcium oscillation score was 38.5 % of control.

Regarding “TCAGCTTGTGGGTTTCAATC (sugars l3 d14 l3, PS)”, the calcium oscillation score was 13.3 % of control. The value for TCAGGTCAACTGGTTT (sugars l3 d10 l3, PS) was 95.9 % of control. The value for “TCAGGTCAACTGGTTTGTAG (sugars l3 d14 l3, PS)” was 0 % of control. The value for TCAGGTCTGGCATGG (sugars l3 d9 l3, PS) was 0 % of control; that for TCAGTCCTAATCCTGT (sugars l3 d10 l3, PS) was 53.3 % of control; that for “TCATAAATGACTATACTTAT (sugars l3 d14 l3, PS)” was 80.6 % of control. Consider TCATAGTCACTCTGGT (sugars l3 d10 l3, PS), for which the calcium oscillation score is 85.7 % of control. Regarding “TCATCACCAAGTCCCAA (sugars l2 d12 l3, PS)”, the calcium oscillation score is 61.7 % of control. In the case of TCATCGCTTCCAGTCC (sugars l3 d10 l3, PS) it was 19.2 % of control.

TCATCTTTTCTAGAAC (sugars l4 d8 l4, PS): the calcium oscillation score is 77.3 % of control. “TCATCTTTTCTAGAACC (sugars l4 d10 l3, PS)”: the calcium oscillation score was 70.9 % of control. The value for “TCATCTTTTCTAGAACCC (sugars l3 d13 l2, PS)” was 48.4 % of control; that for “TCATGAGCACTAACTCTAAG (sugars l3 d14 l3, PS)” was 35.7 % of control. On to TCATTCAGCCAATCAC (sugars l4 d9 l3, PS), for which the calcium oscillation score was 52.4 % of control. Take “TCATTCAGCCAATCACA (sugars l3 d11 l3, PS)”: the calcium oscillation score was 45.6 % of control.

As to “TCATTTACCAATTATCTTTA (sugars l4 d13 l3, PS)”, the calcium oscillation score was 48.8 % of control. As for “TCATTTTTCTCAAGCTCC (sugars l2 d14 l2, PS)”, the calcium oscillation score was 55.8 % of control. Take “TCATTTTTTATTCATAACTT (sugars l4 d12 l4, PS)”: the calcium oscillation score is 62.3 % of control.

In the case of “TCCAAAACATTCTCACCAAA (sugars l4 d14 l2, PS)”, the calcium oscillation score is 85.7 % of control. The value for “TCCAAACTTTTACTCTG (sugars l3 d10 l4, PS)” was 31.2 % of control. The value for “TCCAAAGCATCAAATCC (sugars l3 d11 l3, PS)” was 85.5 % of control; that for “TCCAAGTCAATGCCTGGCTT (sugars l3 d14 l3, PS)” was 18.1 % of control; that for TCCAATACTAGATCTA (sugars l4 d9 l3, PS) was 71.9 % of control. The value for “TCCACAAACCAACTCAA (sugars l3 d10 l4, PS)” was 99.5 % of control. Regarding “TCCACAAACCAACTCAAC (sugars l4 d12 l2, PS)”, the calcium oscillation score was 95.9 % of control.

Take “TCCACAAACCAACTCAACA (sugars l2 d13 l4, PS)”: the calcium oscillation score is 102 % of control. The value for “TCCACAAACCAACTCAACAT (sugars l2 d15 l3, PS)” was 75.2 % of control; that for TCCACCCTTACACATA (sugars l3 d11 l2, PS) was 48.8 % of control; that for “TCCACCCTTACACATAG (sugars l3 d12 l2, PS)” was 40.4 % of control. The value for “TCCACTTAGACACTCTT (sugars l2 d11 l4, PS)” was 50 % of control; that for “TCCACTTAGACACTCTTT (sugars l3 d13 l2, PS)” was 37.5 % of control. In the case of “TCCAGCCATATTTCAACTCT (sugars l3 d14 l3, PS)” it was 45.2 % of control. For “TCCAGCTACTTACCCAA (sugars l2 d12 l3, PS)”, the calcium oscillation score is 89 % of control.

Regarding “TCCAGGGACCCAATCTTCGA (sugars l3 d14 l3, PS)”, the calcium oscillation score is 0 % of control. TCCAGTCCCGTCTTTG (sugars l3 d10 l3, PS): the calcium oscillation score was 11.5 % of control. The value for TCCATCCTAAGTCAAC (sugars l3 d9 l4, PS) was 65.3 % of control. Regarding TCCATTAATTTAGCCA (sugars l4 d10 l2, PS), the calcium oscillation score is 54.1 % of control. In the case of TCCATTAGTCTCTTCA (sugars l3 d11 l2, PS), the calcium oscillation score was 65.1 % of control.

In the case of “TCCATTCCCTCCAGAACCAT (sugars l3 d14 l3, PS)”, the calcium oscillation score was 61.9 % of control. For “TCCATTTTCACTGTTCA (sugars l3 d12 l2, PS)”, the calcium oscillation score was 87.7 % of control. In the case of “TCCATTTTCTGACTCTA (sugars l3 d12 l2, PS)” it was 40.4 % of control; in that of “TCCCAAATTCCTCATAATCC (sugars l2 d16 l2, PS)”, 64.5 % of control. The value for “TCCCAACTCTTTGAACAC (sugars l3 d13 l2, PS)” was 83.5 % of control; that for “TCCCACCATCCACGCTC (sugars l2 d13 l2, PS)” was 64.7 % of control.
